Assay results from patent publication EP3818828A1 (priority 2019, dated 2021).
Read-outs that look alike come from different tables or passages of the source.

Assays:
Type in all cases: cell-based
[1] = test system: Pyricularia grisea; experiment: microbe, parasite or virus in culture; details: for Average Diameter of the Colony: 1 mg/mL; for inhibition at 1000 µg/mL: read-out: Inhibition Rate
[2] = test system: F. graminearum; experiment: microbe, parasite or virus in culture; details: for Average Diameter of the Colony: F. graminearum, 1 mg/mL; for inhibition at 1000 µg/mL: Fusarium graminearum, read-out: Inhibition Rate
[3] = test system: Phytophthora infestans; experiment: microbe, parasite or virus in culture; details: for Average Diameter of the Colony: 1 mg/mL; for inhibition at 1000 µg/mL: read-out: Inhibition Rate
[4] = test system: C. gossypii; experiment: Ex vivo mycelial growth inhibition, growth rate method; details: for Average Diameter of the Colony: C. gossypii; for inhibition at 1000 µg/mL: Colletotrichum gossypii, read-out: Inhibition Rate
From the text: (§1) 3-(3',4'-methylenedioxy phenyl)-N-n-propyl acrylamide (at a purity of 99%), 3-(3',4'-methylenedioxy phenyl)-piperidine acrylate (at a purity of 99%), the control agents, 96.5% of chlorothalonil technical (non-systemic broad-spectrum fungicide), 97.2% of carbendazim technical (systemic broad-spectrum fungicide), 97.0% of procymidone technical (systemic fungicide), 96.0% of dimethomorphtechnical ((E,Z)-4-[3-(4-chlorphenyl)3-(3,4-dimethoxy phenyl)acryloyl]morpholine, systemic fungicide), 97.0% of azoxystrobin technical (systemic broad-spectrum fungicide).
(§2) The inhibition of samples for testing on the mycelial growth of plant pathogenic fungi for testing is determined with a growth rate method. 3-(3',4'-methylenedioxy phenyl)-N-n-propyl acrylamide, 3-(3',4'-methylenedioxy phenyl)-piperidine acrylate and five control agents are dissolved with dimethyl sulfoxide (DMSO), then formulated at 5-7 concentrations of different gradients for test following the trial test results, with the same concentration of DMSO as the control solvent, each treatment in triplicate. Fungal cakes with a diameter of 4 mm are taken from the edge of the colony, inoculated into the center of a PDA plate containing different agents of different concentrations and the DMSO control, with one piece of fungal cake inoculated in each plate (with a diameter of […]), and incubated in a constant temperature incubator at a temperature of 22±1.5°C. 7 days later (10-20 days may be needed for some pathogenic fungi), the diameter of the colony is measured with a cross over method according to the mycelial growth profile of the control pathogenic fungi, then the inhibition rate of mycelial growth is calculated.
(§3) The computational formula is as below: the inhibition rate of mycelial growth (%) = [(the diameter of the control colony - the diameter of the treated colony)/the diameter of the control colony] × 100.
(§4) The inhibition results of each agent at a concentration of 1 mg/mL on the mycelial growth of plant pathogenic fungi are shown in Tables 1 and 2.

[5] = test system: F. oxysporum f. sp. lini; experiment: as above; details: 1 mg/mL; for inhibition at 1000 µg/mL: Fusarium oxysporum
From the text: as §1, §2, §3, §4

[6] = test system: F. oxysporum f. sp. vasinfectum; experiment: as above; details: 1 mg/mL; for inhibition at 1000 µg/mL: Fusarium oxysporum
From the text: as §1, §2, §3, §4

[7] = test system: Sclerotinia sclerotiorum; experiment: as above; details: 1 mg/mL
From the text: as §1, §2, §3, §4

[8] = test system: Exserohilum turcicum; experiment: as above; details: 1 mg/mL
From the text: as §1, §2, §3, §4

[9] = test system: Mycosphaerlla melonis; experiment: as above; details: 1 mg/mL
From the text: as §1, §2, §3, §4

[10] = test system: Botrytis cinerea; experiment: as above; details: 1 mg/mL
From the text: as §1, §2, §3, §4

[11] = test system: Phytophthora capsici; experiment: as above; details: Phytophthora capsici; 1 mg/mL
From the text: as §1, §2, §3, §4

[12] = test system: Phytophthora infestans; details: Phytophthora infestas; 1 mg/mL
[13] = test system: Fusarium graminearum; experiment: microbe, parasite or virus in culture
[14] = test system: Thanatephorus cucumeris; experiment: Ex vivo mycelial growth inhibition, growth rate method; details: 1 mg/mL
From the text: as §1, §2, §3, §4

[15] = test system: Coniella diplodiella; experiment: as above; details: 1 mg/mL
From the text: as §1, §2, §3, §4

[16] = test system: F. verticillioide; experiment: as above; details: 1 mg/mL
From the text: as §1, §2, §3, §4

[17] = test system: Colletotrichum capsici; experiment: as above; details: 1 mg/mL
From the text: as §1, §2, §3, §4

[18] = test system: Pythium aphanidermatum; experiment: as above; details: 1 mg/mL
From the text: as §1, §2, §3, §4

[19] = test system: Rhizoctonia solani; experiment: as above; details: Rhizoctonia solani; 1 mg/mL
From the text: as §1, §2, §3, §4

SMILES | Average Diameter of the Colony [1] [cm] | inhibition at 1000 µg/mL [1] [%] | Average Diameter of the Colony [2] [cm] | inhibition at 1000 µg/mL [2] [%] | Average Diameter of the Colony [3] [cm] | Average Diameter of the Colony ([4]; 1 mg/mL) [cm] | Average Diameter of the Colony [5] [cm] | inhibition at 1000 µg/mL [5] [%] | Average Diameter of the Colony [6] [cm] | inhibition at 1000 µg/mL [6] [%] | Average Diameter of the Colony [7] [cm] | inhibition at 1000 µg/mL [7] [%] | Average Diameter of the Colony [8] [cm] | inhibition at 1000 µg/mL [8] [%] | Average Diameter of the Colony [9] [cm] | inhibition at 1000 µg/mL [9] [%] | Average Diameter of the Colony [10] [cm] | inhibition at 1000 µg/mL [10] [%] | Average Diameter of the Colony [11] [cm] | inhibition at 1000 µg/mL [11] [%] | further results
CO/C=C(/C(=O)OC)c1ccccc1Oc1cc(Oc2ccccc2C#N)ncn1 [Azoxystrobin, azoxystrobin] | 4.67 | 48.1 | 6.23 | 30.8 | 0.00 | 5.37 | 5.93 | 34.1 | 3.03 | 66.3 | 4.40 | 51.1 | 6.50 | 27.8 | 3.93 | 56.3 | 4.33 | 51.9 | 6.70 | 25.6 | inhibition at 1000 µg/mL [3]: 100%; inhibition at 1000 µg/mL [4]: 40.3%
COC(=O)Nc1nc2ccccc2[nH]1 [Carbendazim, carbendazim] | 0.00 | 100 | 1.17 | 87 | 6.80 | 0.00 | 0.00 | 100 | 0.00 | 100 | 0.00 | 100 | 9.00 | 0 | 0.00 | 100 | 0.00 | 100 | 0.00 | 100 | Average Diameter of the Colony [12]: 0.00 cm; Average Diameter of the Colony ([13]; 1 mg/mL): 0.00 cm; inhibition at 1000 µg/mL ([13]; read-out: Inhibition Rate): 100%; Average Diameter of the Colony [14]: 0.00 cm; inhibition at 1000 µg/mL [14]: 100%; Average Diameter of the Colony [15]: 0.00 cm; inhibition at 1000 µg/mL [15]: 100%; inhibition at 1000 µg/mL ([4]; C. cossypii, 1 mg/mL): 100%; Average Diameter of the Colony [16]: 0.00 cm; inhibition at 1000 µg/mL [16]: 100%; Average Diameter of the Colony [17]: 0.00 cm; inhibition at 1000 µg/mL ([17]; Colletotrichum truncatum): 100%; Average Diameter of the Colony [18]: 0.00 cm; inhibition at 1000 µg/mL [18]: 100%; Average Diameter of the Colony [19]: 0.00 cm; inhibition at 1000 µg/mL [19]: 100%
COc1ccc(C(=CC(=O)N2CCOCC2)c2ccc(Cl)cc2)cc1OC [Dimethomorph, (E,Z)-4-[3-(4-chlorphenyl)3-(3,4-dimethoxyphenyl)acryloyl]morpholine] | 6.67 | 25.9 | 6.23 | 30.8 | 0.00 | 3.93 | 6.27 | 30.3 | 6.03 | 33 | 4.77 | 47 | 6.50 | 27.8 | 2.13 | 76.3 | 2.33 | 74.1 | 0.00 | 100 | inhibition at 1000 µg/mL [3]: 100%; inhibition at 1000 µg/mL ([4]; C. cossypii, 1 mg/mL): 56.3%
